The source of these data is PMC5574226, “A Liquid Chromatography-Tandem Mass Spectrometry Method for Evaluation of Two Brands of Enalapril 20 mg Tablets in Healthy Human Volunteers” (Journal of Analytical Methods in Chemistry, 2017).

Structures can show the parent of a compound that is named as a salt. Where two headings read alike, the source gives them in different places. A value given as a limit tells only on which side of the number the result lay.

On the set-up of data set [1]: method as in PMID 27437883. As to conditions: hospitalizing type 2 diabetes mellitus patients, overall and high-risk subgroups; cited from earlier work.
The conditions of data set [2]: cited from earlier work.
On the set-up of data set [3]: method as in doi:10.5012/bkcs.2004.25.6.878. As to conditions: after oral administration of enalapril, LC-MS method; cited from earlier work.
For data set [4] the following is noted: single oral intake of 20 mg of enalapril, 24 healthy subjects, GC-MS method; cited from earlier work.
Data set [5] is described as follows: Stability of enalapril and enalaprilat in spiked plasma under different storage conditions. It is filed as physicochemical, human. As to conditions: for Stability: n = 6; for Stability test results: spiked plasma and stock solutions, room temperature for 20 hrs, freeze-thaw cycles, autosampler, accelerated stability. An excerpt: (4) Stability. Stability validation was done in triplicate run for low, mid, and high QC samples and calculated from spiked calibration curve. […]

For data set [6] the following is noted: LC-MS/MS method; cited from earlier work.
A short description of data set [7]: Bioequivalence study of two enalapril 20 mg tablet formulae, plasma levels by LC-MS/MS. In kind it is in vivo, human. As to conditions: single oral dose 20 mg, 30 healthy male volunteers. As to the method: Protein precipitation were done for each sample by using acetonitrile. The mobile phase was prepared by mixing of 70% methanol and 30% of a mixture of 20 mM ammonium acetate and 0.2 mM formic acid, while the stationary phase was RP-C18 column (50 × 4.0 mm ID, 5 μm). The column was maintained at 40°C, while the autosampler temperature was 4°C. The flow rate was 1.0 ml/min. The plasma levels of the analytes were measured after a single dose of 20 mg enalapril tablets under fasting conditions.
In this study we applied a clinical study similar to that of [16] with modification. Thirty healthy adult male volunteers participated in this study after signing an informed consent. […]
After fasting period (12 hrs, overnight), each volunteer was given an oral dose containing 20 mg of enalapril either “A, reference” or “B, tested” formula with 200 mL of water in the sequence determined by randomization. […]
The pharmacokinetic parameters considered for assessment of the bioequivalence study between the reference drug and test drug were as follows: maximum plasma concentration (Cmax), area under plasma concentration/time plot until the last quantifiable value (AUC0–72), auxiliary parameters, time of the maximum plasma concentration (tmax), elimination half-life time (t-half), and area under plasma concentration/time plot extrapolated to infinity (AUC0–∞). […]

Where [8] appears, read: Accelerated stability at −30.0°C for 30 days, QC 3 ng/ml, plasma.
Setting [9] is: Accelerated stability at −30.0°C for 30 days, QC 100 ng/ml, plasma.
Where [10] appears, read: Accelerated stability at −30.0°C for 30 days, QC 160 ng/ml, plasma.
[11] abbreviates: Autosampler stability 24 h at 4°C, QC 3 ng/ml.
[12] abbreviates: Autosampler stability 24 h at 4°C, QC 100 ng/ml.
Setting [13] is: Autosampler stability 24 h at 4°C, QC 160 ng/ml.
Setting [14] is: Freeze and thaw stability at −20°C (3 cycles), QC 3 ng/ml, plasma.
Where [15] appears, read: Freeze and thaw stability at −20°C (3 cycles), QC 100 ng/ml, plasma.
Where [16] appears, read: Room temperature stability for 10 h, QC 3 ng/ml, plasma.
The mark [17] stands for this setting: Room temperature stability for 10 h, QC 100 ng/ml, plasma.
The mark [18] stands for this setting: Room temperature stability for 10 h, QC 160 ng/ml, plasma.

With `N[C@@H](CC(=O)N1CCn2c(nnc2C(F)(F)F)C1)Cc1cc(F)c(F)cc1F` [sitagliptin], the “Effect on the risk for heart failure” value in data set [1] is listed as “did not affect”.
One may read the Cmax as the maximum level reached in the sampled fluid or tissue. `CCOC(=O)[C@H](CCc1ccccc1)N[C@@H](C)C(=O)N1CCC[C@H]1C(=O)O` [enalapril, (S)-1-(N-(1-(ethoxycarbonyl)-3-phenylpropyl)-L-alanyl)-Lproline (Z)-2-butenedioate salt]: in data set [2] (absorbed from the gastrointestinal tract), the Bioavailability was 60–70%. The “Plasma level after 4 hrs” value in data set [2] (after 4 hrs) is under 0.01 µg/mL. Besides, the “Effect of presence of food in the GI tract on absorption” value in data set [2] is on record as “not affected”. Moreover, in data set [2], the Terminal half-life entry was “about 2 h”. For the same compound, the “Time to maximum plasma concentration” value in data set [2] (enalapril, after oral administration) is at most 1 h. In addition, the “Maximum plasma concentration (Cmax), mean” value in data set [3] was 0.102 ± 0.039 µg/mL. In addition, in data set [3], the “Time to maximum plasma concentration (tmax)” value was 0.96 ± 0.36 h. Also, the “Cmax, mean” value in data set [4] is 0.0729 ± 0.0416 µg/mL. The tmax is 4.0 ± 1.4 h in data set [4] and 0.860 ± 0.310 h in data set [6]. For the same compound, the Stability in data set [5] (setting [8]) came to 97.81%; in data set [5] (setting [9]), 96.59%; in data set [5] (setting [10]), 85.10%; in data set [5] (setting [11]), 95.83%; in data set [5] (setting [12]) it was 98.34%; in data set [5] (setting [13]), 95.40%. Besides, the Stability in data set [5] (setting [14]) is given as 96.45%; in data set [5] (setting [15]) it was 98.54%; in data set [5] (setting [16]) it was 99.57%; in data set [5] (setting [17]), 101.64%; in data set [5] (setting [18]), 103.66%. The Stability test results in data set [5] is given as “greater than 85%”. For the same compound, the “AUC0–t” value in data set [6] is 0.136 ± 0.036 µg·h/mL. Further, the “AUC0–∞” value in data set [6] is 0.138 ± 0.036 µg·h/mL. In data set [6], the Cmax is 0.0905 ± 0.0284 µg/mL. In addition, the T1/2 in data set [6] is 1.35 ± 0.61 h. Besides, the Tolerability in volunteers entry in data set [7] is “well tolerated”.
For `C[C@H](N[C@@H](CCc1ccccc1)C(=O)O)C(=O)N1CCC[C@H]1C(=O)O` [enalaprilat], the Half-life in data set [2] is 30 to 35 h. Further, the “Time of maximum plasma concentration” value in data set [2] (enalaprilat after administration of enalapril) is 3 to 4 h. Further, the Stability was 110.47% in data set [5] (setting [8]); 103.62% in data set [5] (setting [9]); 96.68% in data set [5] (setting [10]); 100.94% in data set [5] (setting [11]); 99.93% in data set [5] (setting [12]); 102.09% in data set [5] (setting [13]). The Stability is recorded as 95.31% in data set [5] (setting [14]); 96.70% in data set [5] (setting [15]); 101.18% in data set [5] (Freeze and thaw stability at −20°C (3 cycles), QC 160 ng/ml, plasma); 98.02% in data set [5] (setting [16]); 98.47% in data set [5] (setting [17]); 100.17% in data set [5] (setting [18]). The Stability test results in data set [5] is “greater than 85%”. For the same compound, in data set [6], the “AUC0–t” value is 0.401 ± 0.089 µg·h/mL. Further, the “AUC0–∞” value in data set [6] was 0.42 ± 0.091 µg·h/mL. In addition, the Cmax in data set [6] was 0.0475 ± 0.0124 µg/mL. Further, in data set [6], the T1/2 is 6.71 ± 2.22 h. In addition, in data set [6], the tmax was 4.20 ± 1.06 h.
